We go through four molecules from patent US4500544A, “Ascochlorin derivatives, and pharmaceutical composition containing the same” (Chugai Seiyaku Kabushiki Kaisha, priority 1981, dated 1985).

For series [1] the following is noted: systemic or oral administration; cited from earlier work.
The conditions of series [2]: background; cited from earlier work.
Series [3] relates to circulatory system of mammals. To be noted: background; cited from earlier work.
For series [4] the following is noted: background; cited from earlier work. This is another data set of the same source.
Series [5] deals with hepatic lipogenesis in streptozotocin-diabetic mice. The experiment in a line: hepatic lipogenesis in streptozotocin-diabetic mice. The series is classed as in vivo. To be noted: oral, a week; untreated diabetic controls one half of normal. The text has this: Potentiation of insulin action by the compounds of the present invention is corroborated by restoration of hepatic lipogenesis in streptozotocin-diabetic mice. Streptozotocin diabetic mice greatly deteriolate hepatic lipogenesis due to insulin deficiency.

Series [6] deals with adipocytes of streptozotocin-diabetic rats. The experiment in a line: adipocytes from orally treated streptozotocin-diabetic rats. The class given is in vivo. To be noted: oral once daily for 2 weeks. As to the method:
The mechanism of action of the compounds of the present invention was evaluated using adipocytes derived from diabetic animals which orally received the compounds for a given period.

The subject of series [7] is Hereditary obese diabetic mice C 57BL/Ksj (db^+ /db^+). The experiment in a line: hereditary obese diabetic mice, diet with 0.1% compound (Example 20). The series is classed as in vivo, mouse. The procedure: The amounts of the diet taken drinking water, urine volume and urine glucose excreted were measured daily. The results are indicated in Table 2 in terms of mean value±standard error.

Another series concerns Ehrlich ascites tumor. Nature of the series: life span of mice with Ehrlich ascites tumor (Example 22). The settings on record: 2 mg i.p. once a day for 7 days. The class given is in vivo, ddY male mice. The procedure: 10^6 Cells of Ehrlich ascites tumor were transplanted in five-week-old ddY male mice and from the 24th hour onward, they were injected intraperitoneally the compounds indicated in Table 4 of the present invention once a day for 7 consecutive days. Each injection contained 2 mg of the test compounds. The efficacy of the compounds is indicated in Table 4 in terms of their life span.

The test system of series [8] is adipocytes of hereditary obese diabetic mouse, strain C 57BL/KsJ (db^+ /db^+). Nature of the series: adipocytes from orally treated hereditary obese diabetic mice. The class given is in vivo. To be noted: oral, 1 week. The source says: The hereditary obese diabetic mouse, strain C 57BL/KsJ (db^+ /db^+), is an excellent model of human type II diabetes mellitus.
The nature of series [9]: plasma glucose and cholesterol in normal mice fed the compounds (Example 19). The class given is in vivo, ddY male mice. To be noted: 0.1% in diet, one week, n=10. As to the method: Five-week-old ddY male mice (n=10) were given for one week a diet (CE-2 from Nippon Crea Co., Ltd.) containing 0.1% of the sample compounds of the present invention indicated in Table 1. Blood was then withdrawn from the heart and the glucose and cholesterol levels in plasma were measured.

The test system of the next series is L-1210 leukemia. Nature of the series: prevention of L-1210 leukemia by pretreatment one week before transplantation (Example 23). To be noted: 2 mg i.p. one week before 10^2 cells. The series is classed as in vivo, BDF1 female mice. The procedure: Four-week-old BDF1 female mice were injected intraperitoneally with suspensions of 2 mg of 4-O-hydroxycarbonylmethyl ester of ascochlorin in 1% tragacanth gum. A control group was injected only with 1% tragacanth gum. One week later, 10^2 cells of L-1210 leukemia were transplanted in the mice.

Series [10] concerns Hereditary obese diabetic mice C 57BL/Ksj (db^+ /db^+). The experiment in a line: hereditary obese diabetic mice, diet with 0.05% compound, intake and urine (Example 24). The class given is in vivo, mouse. The procedure:
Hereditary obese diabetic mice C 57BL/Ksj (db^+ /db^+), 12 weeks old, were fed commercial pellet diet (CE-2 from Nippon Crea Co., Ltd.) for a week and they were treated with CE-2 pellet containing 0.05% of 4-O-nicotinoylascochlorin for a week. The daily amounts of the diet intake, drinking water, urine volume and urine glucose excreted were measured before and during the treatment.

Series [11] has as its system Hereditary obese diabetic mice C57BL/Ksj (db^+ /db^+). Nature of the series: hereditary obese diabetic mice, plasma glucose and lipid (Example 27). The series is classed as in vivo, mouse. The procedure: Hereditary obese diabetic mice C57BL/Ksj (db^+ /db^+) were given for one week a diet (CE-2 from Nippon Crea Co., Ltd.) containing 0.05% of 4-O-nicotinoyl ascochlorin. A control group of the same age was given only CE-2. One week later, the animals were sacrificed and the levels of plasma glucose and lipid were measured.

In series [12] the test system is streptozotocin diabetic ddY mice. The experiment in a line: streptozotocin-diabetic mice, plasma glucose and lipid (Example 26). The class given is in vivo, ddY male mice. As to the method:
Five-week-old ddY male mice […] were injected intraperitoneally 150 mg/kg of streptozotocin, and after 24 hours onward, they were given for one week a diet (CE-2 from Nippon Crea Co., Ltd.) containing 0.05% of 4-O-nicotinoyl ascochlorin. A control group was given only CE-2. On the 7th day, the animals were sacrificed and the levels of glucose and lipid in their plasma were measured.

A short description of series [13]: serum lipid and glucose in normal mice fed the compounds (Example 25). The class given is in vivo, ddY male mice. The procedure:
Five-week-old ddY male mice were given for one week a diet (CE-2 from Nippon Crea Co., Ltd.) containing 0.05% of the compounds of the present invention indicated in Table 7. On the 7th day, the mice were sacrificed and the levels of lipid and glucose in their serum were measured.

The mark [14] stands for this setting: vs one week prior to administration.

A value given as a limit tells only on which side of the number the result lay.

For the molecule `COc1c(Cl)c(C)c(C=O)c(O)c1C/C=C(C)/C=C/C1(C)C(C)CCC(=O)C1C` (centres unmarked), in [1], the level in blood entry is “not easily increased even if it is administered systemically or orally”. For the same molecule, the water solubility entry in series [2] is on record as “low in water solubility”.

On to `CC(/C=C/[C@@]1(C)[C@H](C)CCC(=O)[C@@H]1C)=C\Cc1c(O)c(Cl)c(C)c(C=O)c1O` [Ascochlorin], for which, in series [3], the “toxicity to the circulatory system” value is “highly toxic to the circulatory system of mammals”. Further, the “anti-viral and anti-tumor effects” value in series [4] is “high anti-viral and anti-tumor effects”.

Take `CC(/C=C/C1(C)C(C)CCC(=O)C1C)=C\Cc1c(O)c(C=O)c(C)c(Cl)c1OCC(=O)O` (centres unmarked) [Example 4, 4-O-carboxymethyl ascochlorin]: the “incorporation of acetate into hepatic total fatty acid and triglyceride” value in [5] was “restored to normal control levels”. Further, the “2-deoxyglucose uptake, and conversion of glucose to carbon dioxide and lipids in adipocytes” value in series [6] is “greatly increased”. The “^125 I-insulin binding to adipocytes” value in series [6] (vs normal and diabetic control) is “increased ^125 I-insulin binding to adipocytes above normal and diabetic control levels”. This molecule returned a urine volume in series [7] (0.1% in diet, one week administration, prior 5.95 ± 0.20, n=10) of 2.07 ± 0.23 ml/mouse/day. In [7] (0.1% in diet, one week administration, prior 6.35 ± 0.13, n=10), this molecule had a diet intake of 6.37 ± 0.28 g/mouse/day. For the same molecule, the drinking water in series [7] (0.1% in diet, one week administration, prior 14.7 ± 0.3, n=10) was determined as 10.4 ± 0.3 ml/mouse/day. This molecule came in with a urine glucose concentration in series [7] (0.1% in diet, one week administration, prior 97.4 ± 3.4, n=10) of 52.9 ± 5.52 mg/mL. In addition, in series [7] (0.1% in diet, one week administration, prior 579.5 ± 21.1, n=10), the urine glucose is reported as 106.8 ± 19.5 mg/mouse/day. In series [7] (setting [14]), the “drinking water, change” value is -29.3%; the “urine glucose concentration, change” value was -45.7%; the “urine glucose, change” value was -81.5%; the “urine volume, change” value is -65.2%. Further, the Days survived with Ehrlich ascites tumor (n=8, control 15.5 ± 2.12) was greater than 25.3 ± 4.65 days. Besides, the “T/0 (%)” value with Ehrlich ascites tumor (control 100) turned out to be 163%. For the same molecule, in series [8], the “2-deoxyglucose uptake, and conversion of glucose to carbon dioxide and lipid” value is listed as “increased”. The “increment in ^125 I-insulin binding to adipocytes” value in series [8] (above age-matched untreated diabetic controls) is on record as 1.5-3.0 fold. Moreover, the “total cholesterol in plasma” value in series [9] (control 135.9 ± 4.8) was 107.9 ± 4.5 mg/dL. Besides, the plasma glucose in series [9] (control 271.6 ± 0.4) came out at 217.6 ± 12.2 mg/dL. For the same molecule, in the series with L-1210 leukemia (control 0, P < 0.01), the “Survived 50 days or more” value was found to be 7. Further, the Died in the series with L-1210 leukemia (control 20 died) stood at 13.

Turning to `CC(/C=C/C1(C)C(C)CCC(=O)C1C)=C\Cc1c(O)c(C=O)c(C)c(Cl)c1OC(=O)c1cccnc1` (centres unmarked) [Example 11, 4-O-nicotinoyl ascochlorin], the “incorporation of acetate into hepatic total fatty acid and triglyceride” value in series [5] is “restored to normal control levels”. Moreover, the “polydipsia, polyuria and urine glucose excretion (in words)” value in [10] (0.05% in diet, one week) was “improved polydipsis and polyurea and inhibited excretion of urine gluclose”. The same molecule showed a urine volume in series [10] (0.05% in diet, one week, n=5, control period 8.60 ± 0.35) of 5.20 ± 0.36 ml/mouse/day. This molecule gave a drinking water in series [10] (0.05% in diet, one week, n=5, control period 14.55 ± 0.33) of 11.16 ± 0.52 ml/mouse/day. In series [10] (0.05% in diet, one week, n=5, control period 130.6 ± 5.7), this molecule registered a urine glucose concentration of 106.3 ± 2.9 mg/mL. The urine glucose in series [10] (0.05% in diet, one week, n=5, control period 1129 ± 96) came out at 554 ± 43 mg/mouse/day. The same molecule gave a diet intake in [10] (0.05% in diet, treatment period one week, n=5, control period 4.85 ± 0.06, NS) of 4.26 ± 0.39 g/mouse/day. In [10] (vs control period), the “drinking water, change” value is given as -23.30%; the “urine glucose concentration, change” value is given as -18.6%; the “urine glucose, change” value is -50.9%; the “urine volume, change” value is recorded as -39.5%. In addition, the “plasma lipid and glucose levels (in words)” value in series [11] (0.05% in diet, one week) is “could reduce significantly the high plasma lipid and glucose levels”. In series [11] (0.05% in diet, one week, n=7, control 27.7 ± 1.8), the “plasma free fatty acid” value was 26.1 ± 1.4 mg/dL. The molecule further had a plasma triglyceride in series [11] (0.05% in diet, one week, n=7, control 170.7 ± 16.3) of 115.5 ± 14.9 mg/dL. In series [11] (0.05% in diet, one week, n=7, control 236.6 ± 91.0), the “immunoreactive insulin in plasma” value worked out at 257.3 ± 91.3 μU/ml. Further, the plasma glucose in series [11] (0.05% in diet, one week, n=7, control 453.6 ± 38.0) was 351.3 ± 23.0 mg/dL. Further, in [11] (vs control), the “plasma glucose, change” value is recorded as -23% and the “plasma triglyceride, change” value was -32.3%. Moreover, in series [12] (0.05% in diet, one week), the “blood glucose and plasma triglyceride (in words)” value is “could inhibit significantly the increase in the levels of blood glucose and triglyceride in plasma”. Besides, the “free aliphatic acid in plasma” value in series [12] (0.05% in diet, one week, control 22.4 ± 1.4) stood at 20.5 ± 1.2 mg/dL. For the same molecule, the plasma glucose in series [12] (0.05% in diet, one week, control 453.6 ± 38.0) was determined as 351.3 ± 23.0 mg/dL. In series [12] (vs control), the “free aliphatic acid in plasma, change” value is reported as -8% and the “plasma glucose, change” value was -23%. Besides, in [13] (0.05% in diet, one week), the “lipid level in serum (in words)” value is on record as “could also reduce the lipid level in serum”. Further, the “free fatty acid in serum” value in series [13] (0.05% in diet, one week, n=8, control 25.3 ± 1.62) worked out at 21.2 ± 0.62 mg/dL. Moreover, the “neutral fat in serum” value in [13] (0.05% in diet, one week, n=8, control 134.7 ± 8.6) was found to be 102.0 ± 10.5 mg/dL. For the same molecule, the “total cholesterol in serum” value in [13] (0.05% in diet, one week, n=8, control 135.9 ± 4.8) worked out at 106.7 ± 5.5 mg/dL. Further, the serum glucose in series [13] (0.05% in diet, one week, n=8, control 293.0 ± 13.3) was found to be 228.0 ± 16.8 mg/dL. Besides, in series [13] (vs control), the “free fatty acid in serum, change” value is reported as -16.3%; the “neutral fat in serum, change” value is given as -24.3%; the “serum glucose, change” value is given as -22.2%; the “total cholesterol in serum, change” value is -21.5%.
